# Key:
# [1] = tested on: Chronic Unpredictable Mild Stress (CUMS) Depressive Rats; assay: Forced swimming test (FST) in CUMS model rats; conditions: 8th week of CUMS, 6-minute forced swimming, trazodone 10 mg/kg/day ig, x ± SD
# [2] = tested on: Chronic Unpredictable Mild Stress (CUMS) Depressive Rats; assay: Sucrose preference test (SPT) in CUMS model rats; conditions: trazodone 10 mg/kg/day ig, x ± SD; for SPT After 2 Weeks of Treatment (%): 5th week of CUMS; for SPT After 4 Weeks of Treatment (%): 7th week of CUMS
# [3] = tested on: Chronic Unpredictable Mild Stress (CUMS) Depressive Rats; assay: Elevated plus maze (EPM) test in CUMS model rats; conditions: 9th week of CUMS, 5-minute EPM, trazodone 10 mg/kg/day ig, x ± SD
structure (smiles),measurement,setting,value
O=c1n(CCCN2CCN(c3cccc(Cl)c3)CC2)nc2ccccn12 [Trazodone],Immobility Time in FST After 5 Weeks of Treatment (s),[1]; n=8,82.28 ± 21.64 ^ s
same,Immobility Time in FST After 5 Weeks of Treatment (s),"[1]; n=8, listed as trazodone",reduced
same,SPT After 2 Weeks of Treatment (%),[2]; n=8,74.00 ± 11.22%
same,SPT After 2 Weeks of Treatment (%),"[2]; n=8, listed as trazodone",no significant difference
same,SPT After 4 Weeks of Treatment (%),[2]; n=8,84.55 ± 16.77 ^ %
same,SPT After 4 Weeks of Treatment (%),"[2]; n=8, listed as trazodone",significantly increased
same,Time Spent Exploring the Open Arms in the 6th Week of Treatment (s),[3]; n=8,4.90 ± 2.06 ^ s
same,Time Spent Exploring the Open Arms in the 6th Week of Treatment (s),"[3]; n=8, listed as trazodone",no significant change
